Experimental data from US12616681B2, “Compositions and methods for treating renal injury” (priority 2019, dated 2026).

Assays:
[1] = test system: mice with ischemic AKI (bilateral renal IRI); assay: Renal IRI model: oxidative stress (MDA in kidney tissue); assay type: in vivo, C57/BL6 mice; settings: single pre-IRI dose; vehicle peaked at 2 h at 48%
Procedure: Reactive oxygen species (ROS) levels were determined by measurement of malondialdehyde (MDA), the end product of lipid peroxidation in kidney lysates. Free MDA reacts with thiobarbituric acid (TBA) at 95° C. to generate an MDA-TBA adduct, which can be quantified colorimetrically at a wavelength of 532 nm. MDA levels were measured in kidney lysates using a lipid peroxidation (MDA) assay kit (Abcam, Cambridge, UK). Results were corrected for total protein level and are expressed as […].

[2] = test system: PGE2 levels in kidney tissue; assay: Renal PGE2 levels in normal mice 1 h after injection (Example 2); assay type: in vivo
Procedure: Next, 20 mg kidney tissue was homogenized in […] cold PBS containing indomethacin (10 μg/mL) using a tissue homogenizer. The suspension was sonicated in an ice-water bath for 1 min using cycles of 10 s of sonication with 10 s of cooling, and then they were centrifuged for 10 min at 12,000 rpm. The supernatant was collected for PGE-2 assay. Protein concentrations were determined by bicinchoninic acid assay (Cat. #23225, Thermo Scientific). The PGE2 level in the supernatant was measured using a PGE2 enzyme-linked immunosorbent assay kit (R&D Systems, Minneapolis, MN, USA) in triplicate. PGE-2 levels were expressed as ng of PGE2/mg protein.

[3] = test system: contrast-induced acute kidney injury (CIAKI) mice; assay: CIAKI mouse model: necrotic and apoptotic cell death, gross findings; assay type: in vivo, C57/BL6 mice; settings: 48 h after CM
Procedure: Kidneys were harvested at 48 h after the CM injection, fixed in 4% phosphate-buffered formalin, and embedded in paraffin. To evaluate necrosis, […] paraffin sections were stained with hematoxylin and eosin. Tubular injury was scored semi-quantitatively according to a system by a pathologist who examined at least 20 separate fields (400× magnification) in the outer medulla, which is the zone most sensitive to ischemic injury. The scoring system was as follows: 0, no damage; 1, patchy isolated unicellular necrosis; 2, tubular necrosis <25%; 3, tubular necrosis 25-50%; and 4, tubular necrosis >50%. At least 20 consecutive high-power fields per section were scored by two operators blind to the details of the experiment. To analyze the frequency of apoptosis, […] paraffin sections were subjected to terminal deoxynucleotidyl transferase-mediated dUTP nick-end labeling (TUNEL) assay (Millipore, Temecula, CA, USA) according to the manufacturer's protocol. Four […] paraffin sections were incubated with the TUNEL reaction mixture at 37° C. for 1 h, followed by incubation with a horseradish peroxidase-conjugated detection antibody. The signals were visualized using diaminobenzidine (Sigma-Aldrich). After counterstaining with Mayer's hematoxylin, TUNEL-positive cells were counted in at least five separate fields (640× magnification) in the outer medulla, and the apoptosis index (%, number of apoptosis cells/total number of cells) was calculated using GENASIS software.

[4] = test system: human renal proximal tubular epithelial cells (hRPTECs); assay: hRPTEC apoptosis by flow cytometry with iodixanol; assay type: cell-based; settings: drug with iodixanol 50 mgI/mL, 24 h
Procedure: Human renal proximal tubular epithelial cells (hRPTECs) were purchased from the American Type Culture Collection (#PCS-400-010TM, Manassas, VA, USA). These cells were grown in 75 cm^2 flasks in Renal Epithelial Cell Basal Medium (PCS-400-030TM, ATCCVR) supplemented with Renal Epithelial Cell Growth Kit (PCS-400-040TM, ATCCVR).
After the treatment described in the section above, the hRPTECs were pelleted by centrifugation at 1800 rpm for 10 min and incubated with annexin V fluorescein isothiocyanate and propidium iodide using an Apoptosis Detection Kit I (#556547, BD Biosciences, San Jose, CA, USA) according to the manufacture's instruction. Then quantification was conducted using a FACSC flow cytometer with Cell Quest software (BD Biosciences).

[5] = test system: contrast-induced acute kidney injury (CIAKI) mice; assay: CIAKI mouse model: renal vasodilation in the outer medulla; assay type: in vivo, C57/BL6 mice; settings: CM + drug, 48 h after CM
Procedure: 48 h after CM injection, kidney tissues were harvested, fixed in 4% phosphate-buffered formalin, and embedded in paraffin. To quantify vasodilation, the inner arteriole area of the outer medulla was determined using α-SMA-stained sections. They were incubated for 1 h with an α-SMA antibody. 3,30-diamino-benzidine (0.7 g/tablet; Sigma-Aldrich) was added, followed by washing three times with PBS for 1 min each. After counterstaining with Mayer's hematoxylin, the inner areas of α-SMA-positive vessels in the outer medulla (25× magnification) were measured using ImageJ software. The results were expressed as the average area of all of the renal arteries in each outer medulla section.

[6] = test system: contrast-induced acute kidney injury (CIAKI) mice; assay: CIAKI mouse model: renal blood flow (laser Doppler flux); assay type: in vivo, C57/BL6 mice; settings: CM + drug, 48 h after CM
Procedure: Total RBF was assessed by measuring renal Doppler flux using noninvasive laser Doppler flowmetry (PeriFlux System 5000, Perimed AB, Sweden). Laser Doppler probes were placed on the kidney surface to measure the renal flux. The flux was measured 48 h after CM administration. The relative increase represented the percentage increase in renal blood flow from baseline to peak for each test. Statistical significance was set as p<0.05.

[7] = test system: contrast-induced acute kidney injury (CIAKI) mice; assay: CIAKI mouse model: AMP and adenosine levels in renal tissue; assay type: in vivo, C57/BL6 mice; settings: CIAKI mice, CM + drug, 48 h after CM
Procedure: 48 h after CM administration, serum and kidney tissues were harvested. The adenosine levels in the serum and kidney tissues were measured using high-performance liquid chromatography.

[8] = test system: contrast-induced acute kidney injury (CIAKI) mice; assay: CIAKI mouse model: PGE2 receptor (EP) expression in kidney tissue; assay type: in vivo, C57/BL6 mice; settings: CM + drug

`CCCC[S+]([O-])c1sc2nc(-c3cccs3)cc(-c3ccccc3)c2c1N` (stereo not shown) [SW033291] was tested, and the “MDA increase above baseline after renal IRI” value [1] was 14%, the “increase of renal PGE2 vs vehicle-administered normal mice” value ([2]; 1 h after administration, average) was “three times” and the “renal PGE2 levels” value ([2]; normal mice, 1 h after ip 5 mg/kg) was 29.71 ± 2.79 ng/mg. For the same molecule, the “vascular congestion in the outer medullary region (gross findings)” value [3] was “less-congested”, the “proportion of TUNEL-positive cells” value ([3]; CM + drug) was 24.01±2.90% and the “microscopic renal injury score” value ([3]; CM + drug, score 0-4) was 0.53±0.16. The “apoptosis rate of hRPTECs” value [4] was 10.06±0.85%, the “average renal arteriole area in the outer medulla” value [5] was 1132.97±159.86 μm^2 and the “RBF (renal Doppler flux)” value [6] was 635.2±11.10. The “AMP in renal tissue” value [7] was 15.60 ± 1.26 ng/mL, the “adenosine in renal tissue” value [7] was 2.65 ± 0.15 ng/mL and the EP3 expression [8] was 1.00±0.02 fold. It also gave an EP4 expression level [8] of 1.25±0.02 fold.
